Source: PMC11674800, “Second-Generation Antipsychotics Induce Metabolic Disruption in Adipose Tissue-Derived Mesenchymal Stem Cells Through an aPKC-Dependent Pathway” (Cells, 2024)

What was measured:
3T3L1 cells = experiment: PA accumulation in cells transfected with DOCK2-Pii; format: cell-based, mouse; settings: 5 μM, 16 h; compared to untreated controls
Description: Transfection was carried out using Lipofectamine 3000 (Thermo Fisher Scientific, Waltham, MA, USA), following the manufacturer’s instructions. The cells were incubated with the plasmid for 24 h to ensure successful transfection and plasmid expression and were used for experiments 48 h post-transfection.

INSRβ signaling in ADSCs = experiment: Insulin signaling Western blot / INSRβ immunoprecipitation; format: cell-based, human; settings: 5 μM, 16 h
Description: (§1) After treatments, whole-cell lysates were prepared using RIPA lysis buffer supplemented with protease inhibitors (AEBSF, aprotinin, bestatin, E-64, EDTA, leupeptin, Sigma-Aldrich, Saint Louis, MO, USA) and orthovanadate (Sigma-Aldrich, Saint Louis, MO, USA). The proteins in the lysates were collected and quantified using the Pierce BCA protein assay kit (Thermo Fisher Scientific, Waltham, MA, USA). Subsequently, the proteins were denatured by heating at 95 °C for 5 min in the presence of 2% Sodium Dodecyl Sulfate (SDS, Sigma-Aldrich, Saint Louis, MO, USA), 150 mM dithiothreitol (DTT, Sigma-Aldrich, Saint Louis, MO, USA), and 0.01% bromophenol blue (Sigma-Aldrich, Saint Louis, MO, USA). The samples were then analyzed using SDS-PAGE (SDS-Polyacrylamide Gel Electrophoresis) and Western blotting (WB).
Following treatment, the cells were stimulated with insulin at 50 ng/mL for 15 min. For the immunoprecipitation of the insulin receptor beta subunit (INSRβ), cell lysates were prepared using RIPA lysis buffer with protease inhibitors, as described previously. The lysates were then incubated for 1 h with magnetic beads (Dynabeads Protein G, Thermo Fisher Scientific, Waltham, MA, USA) that had been previously bound to anti-INSRβ antibody, following the manufacturer’s instructions. After incubation, the beads were washed three times with RIPA buffer to remove non-specifically bound proteins. The immunoprecipitated proteins bound to the beads were then eluted by boiling the beads at 95 °C for 5 min in the presence of 2% SDS, 150 mM DTT, and 0.01% bromophenol blue. The eluted proteins were analyzed using SDS-PAGE and, subsequently, using WB.

PKCζ = experiment: PKC activation (Western blot, P-PKCζ T560 immunofluorescence); format: cell-based, human; settings: 5 μM, 16 h
Description: as §1
(§2) For INSRβ endocytosis experiments, the cells were stimulated with 50 ng/mL insulin for 15 min. For transferrin endocytosis experiments, the cells were incubated with 25 μg/mL Transferrin Texas Red for 5 min. After treatment, the cells were washed with PBS and fixed with 4% PFA for 10 min at room temperature, followed by an additional PBS wash. The cells were then permeabilized by incubating them with cold HEPES-Triton X-100 buffer for 5 min at 4 °C. After permeabilization, the cells were incubated with primary antibodies for 30 min, followed by incubation with Alexa Fluor 488- or 546-conjugated secondary antibodies (Invitrogen, Waltham, MA, USA) and phalloidin, labeled with either Alexa Fluor 546 or 633 (Invitrogen Waltham, MA, USA) for 30 min. After incubation, coverslips were mounted on glass slides using a mounting medium. Images were acquired using a confocal microscope (Leica TCS SP8, Wetzlar, Germany) and analyzed using ImageJ (v 1.52a) software in order to quantify and analyze the fluorescence signals.

ADSCs [1] = experiment: Transferrin uptake (clathrin-dependent endocytosis); format: cell-based, human; settings: 16 h treatment; transferrin 5 min
Description: as §2

INSRβ = INSRβ endocytosis assay and immunofluorescence localization; format: cell-based, human; settings: 5 μM, 16 h; 15 min insulin stimulation
Description: ADSCs were seeded at a density of 100,000 cells/well in a 6-well plate. The protocol was carried out as described in Barrow-McGee et al., 2015 [33]. Cell surface proteins were labeled by incubating the cells with 0.2 mg/mL sulpho-NHS-SS-biotin (Sigma-Aldrich, Saint Louis, MO, USA) in PBS for 45 min on ice. Labeled cells were then washed with cold PBS and incubated at 37 °C in a culture medium containing insulin at 50 ng/mL to allow for INSR trafficking. At the indicated times, the medium was removed and the dishes were transferred to ice and washed with cold PBS. Biotin was removed from the proteins that remained at the cell surface via reduction for 15 min with 180 mM of the membrane-impermeant reducing agent MesNa (sodium 2 mercaptoethane sulphonate, Sigma-Aldrich, Saint Louis, MO, USA) in 50 mM Tris and 100 mM NaCl at pH 8.6. MesNa was quenched by adding 180 mM iodoacetamide (IAA, Sigma-Aldrich, Saint Louis, MO, USA) for 10 min. The cells were lysed using RIPA buffer as previously described. The proteins were quantified using BCA; equal protein amounts received streptavidin–agarose beads (Sigma-Aldrich, Saint Louis, MO, USA) and were agitated at 4 °C for 2 h. Then, the beads were collected via centrifugation (7000× g) and washed in lysis buffer, and the proteins were extracted by heating at 95 °C with sample buffer. In each internalization assay, two controls were carried out. To measure INSRβ at the surface, biotinylated cells at 4 °C were lysed without biotin reduction (Ts). To verify the efficiency of the surface biotin removal, the biotin reduction and MesNa-quenching steps were carried out on cells that had remained on ice (T0). Then, lysis was carried out. All lysates were analyzed via Western blot.
The percentages of internalized INSR were calculated using the following formula: internalized receptor = (receptor level after incubation at 37 °C) − (receptor level at time 0)/(total surface receptor) × 100. All samples were normalized on the input INSR signal.
For INSRβ endocytosis experiments, the cells were stimulated with 50 ng/mL insulin for 15 min. For transferrin endocytosis experiments, the cells were incubated with 25 μg/mL Transferrin Texas Red for 5 min. After treatment, the cells were washed with PBS and fixed with 4% PFA for 10 min at room temperature, followed by an additional PBS wash. The cells were then permeabilized by incubating them with cold HEPES-Triton X-100 buffer for 5 min at 4 °C. […] Images were acquired using a confocal microscope (Leica TCS SP8, Wetzlar, Germany) and analyzed using ImageJ (v 1.52a) software in order to quantify and analyze the fluorescence signals.

ADSCs [2] = experiment: Adipogenic differentiation, lipid droplet staining (HCS LipidTox); format: cell-based, human; settings: 5 µM; after three weeks of differentiation
Description: ADSCs were plated at a density of 70,000 cells/well in a 12-well plate using DMEM with 10% FBS. When the cells reached about 90% confluence, the culture medium was removed and substituted with WAT-differentiating medium containing DMEM 10% FBS, insulin (1 μM), dexamethasone (DEXA, 1 μM), IBMX (0.5 mM), and rosiglitazone ([…]). After 3 days of exposure to the differentiating medium, the cells were cultured in a maintenance medium containing only insulin (1 μM) and rosiglitazone (1 μM) for 14 days. The medium was changed every 3 days. The differentiation results were evaluated by staining the cells with HCS LipidTOX™ for neutral lipids (Thermo Fisher Scientific, Waltham, MA, USA) after 21 days. The cells were fixed using 4% paraformaldehyde (PFA, Sigma-Aldrich, SaintLouis, MO, USA) for 15 min at room temperature; then, each well was stained using HCS LipidTox and Hoechst 33342 and incubated at room temperature for 30 min. After this incubation, the cells were washed with water. Images were acquired using fluorescence microscopy (FLoid Cell Imaging Station, Life Technology, Carlsbad, CA, USA) or light microscopy (DMi1, Leica, Wetzlar, Germany) and analyzed using ImageJ software (v 1.52a).

cathepsin B = experiment: Cathepsin B Western blot; format: cell-based, human; settings: 5 μM, 16 h
Description: as §1

Cc1cc2c(s1)Nc1ccccc1N=C2N1CCN(C)CC1 [olanzapine]
PA accumulation (3T3L1 cells): significant accumulation
phosphorylated INSRβ serine residues (INSRβ signaling in ADSCs; basal and after insulin stimulation): increased levels
INSRβ tyrosine phosphorylation (P-INSRβ Y1146) (INSRβ signaling in ADSCs; insulin 50 ng/mL): reduction
P-AKT T308, P-AKT S473, and P-ERK T202/Y204 (INSRβ signaling in ADSCs; insulin 50 ng/mL): decrease
canonical PKCs (cPKCs) and atypical PKCζ activation state (PKCζ; Western blot): activation
increase in nuclear P-PKCζ T560 (PKCζ; immunofluorescence): 2 fold
short-term transferrin endocytosis (ADSCs [1]): significant reduction
INSRβ colocalization in LAMP1-positive lysosomes (INSRβ): unaffected
INSRβ internalization (INSRβ): significant reduction
INSRβ localization in CD63-positive recycling endosomes (INSRβ): reduced
localization of INSRβ in RAB7-positive late endosomes (INSRβ): significantly increased localization
quantity and average size of lipid droplets (ADSCs [2]): notably decreased
reduction in lipid accumulation (ADSCs [2]): approximately 30%
levels of cathepsin B (cathepsin B): elevated levels
